In the NIST ThermoML archive (doi:10.1021/je900596d):

Details: 362.9 K, Liquid, Vibrating tube method

FC(F)=C(F)C(F)(F)F [hexafluoropropene]
Details	mass density [kg/m3]
5080.8 kPa	959.79
5112.9 kPa	961.66
5146 kPa	963.53
5179.5 kPa	965.35
5212.8 kPa	967.09
5246.7 kPa	968.92
5279.6 kPa	970.74
5314.8 kPa	972.51
5347.4 kPa	974.13
5381.2 kPa	975.88
5415.7 kPa	977.6
5518.8 kPa	982.72
5553.4 kPa	984.34
5588.2 kPa	985.96
5623.1 kPa	987.64
5657.5 kPa	989.1
5693.5 kPa	990.75
5727.5 kPa	992.15
5764.4 kPa	993.86
5798.2 kPa	995.17
5832.3 kPa	996.63
5864.9 kPa	997.97
5898.1 kPa	999.35
5930.9 kPa	1000.69
5965 kPa	1002.21
6035.1 kPa	1005.02
6069.8 kPa	1006.31
6105.1 kPa	1007.76
6137.3 kPa	1008.98
6172 kPa	1010.25
6204.9 kPa	1011.55
6239.5 kPa	1012.84
6274 kPa	1014.15
6308.5 kPa	1015.34
6343.7 kPa	1016.69
6377.6 kPa	1017.96
6413.1 kPa	1019.11
6447.2 kPa	1020.3
6480.8 kPa	1021.47
6516.3 kPa	1022.68
6550 kPa	1023.83
6584.4 kPa	1025.06
6618.1 kPa	1026.09
6653.8 kPa	1027.34
6686.8 kPa	1028.37
6720.5 kPa	1029.53
6754.6 kPa	1030.75
6789.1 kPa	1031.78
6824.9 kPa	1032.91
6860.3 kPa	1034.08
6893.3 kPa	1035.1
6959.4 kPa	1037.09
6993.3 kPa	1038.11
7029.7 kPa	1039.21
7062.9 kPa	1040.15
7097.9 kPa	1041.26
7134 kPa	1042.28
7168.5 kPa	1043.39
7202.4 kPa	1044.3
7237.6 kPa	1045.38
7273.1 kPa	1046.4
7307.6 kPa	1047.38
7378 kPa	1049.33
7411.6 kPa	1050.3
7482.4 kPa	1052.26
7514.7 kPa	1053.12
7547 kPa	1053.95
7581.8 kPa	1054.97
7615.4 kPa	1055.85
7651.7 kPa	1056.85
7689.7 kPa	1057.93
7725.6 kPa	1058.74
7762.3 kPa	1059.79
7796.7 kPa	1060.54
7833.4 kPa	1061.54
7869.9 kPa	1062.44
7906.3 kPa	1063.38
7940.8 kPa	1064.3
7976.7 kPa	1065.12
8010.3 kPa	1065.98
8045.2 kPa	1066.87
8081.6 kPa	1067.62
8115 kPa	1068.6
8149.9 kPa	1069.37
8185.9 kPa	1070.21
8223.3 kPa	1071.09
8281.3 kPa	1072.48
8320.9 kPa	1073.52
8358.3 kPa	1074.27
8396.8 kPa	1075.12
8431.8 kPa	1075.97
8468.6 kPa	1076.79
8505.7 kPa	1077.66
8541.8 kPa	1078.5
8577.3 kPa	1079.34
8611.7 kPa	1080.05
8649.3 kPa	1080.92
8689.4 kPa	1081.74
8724.6 kPa	1082.52
8800.2 kPa	1084.14
8834.9 kPa	1084.87
8868.8 kPa	1085.56
8902.9 kPa	1086.27
8937.5 kPa	1087.05
8971.8 kPa	1087.76
9005.2 kPa	1088.42
9039.7 kPa	1089.26
9073.1 kPa	1089.94
9106.5 kPa	1090.69
9140.8 kPa	1091.37
9173.4 kPa	1092.03
9205.8 kPa	1092.74
9239.9 kPa	1093.42
9274.7 kPa	1094.03
9308.6 kPa	1094.75
9341.7 kPa	1095.45
9377.4 kPa	1096.15
9410.8 kPa	1096.73
9445.5 kPa	1097.46
9479.4 kPa	1098.06
9548.7 kPa	1099.5
9582.4 kPa	1100.15
9618.6 kPa	1100.84
9652.6 kPa	1101.51
9687.1 kPa	1102.18
9721.9 kPa	1102.81
9756.1 kPa	1103.39
9789.2 kPa	1104.04
9822.6 kPa	1104.65
9858.4 kPa	1105.3
9893.4 kPa	1106.05
9929.5 kPa	1106.67
9963.2 kPa	1107.25
9996.5 kPa	1107.93
